From patent US20230265151A1, “GIP/GLP1 CO-AGONIST COMPOUNDS” (priority 2020, published 2023) come the findings set out here.

Type in all cases: cell-based
One assay has as its target T1, hGIPR (Homo sapiens, UniProt P48546).
T1 construct: expressed in transfected cells
T1 sequence (P48546 22-466): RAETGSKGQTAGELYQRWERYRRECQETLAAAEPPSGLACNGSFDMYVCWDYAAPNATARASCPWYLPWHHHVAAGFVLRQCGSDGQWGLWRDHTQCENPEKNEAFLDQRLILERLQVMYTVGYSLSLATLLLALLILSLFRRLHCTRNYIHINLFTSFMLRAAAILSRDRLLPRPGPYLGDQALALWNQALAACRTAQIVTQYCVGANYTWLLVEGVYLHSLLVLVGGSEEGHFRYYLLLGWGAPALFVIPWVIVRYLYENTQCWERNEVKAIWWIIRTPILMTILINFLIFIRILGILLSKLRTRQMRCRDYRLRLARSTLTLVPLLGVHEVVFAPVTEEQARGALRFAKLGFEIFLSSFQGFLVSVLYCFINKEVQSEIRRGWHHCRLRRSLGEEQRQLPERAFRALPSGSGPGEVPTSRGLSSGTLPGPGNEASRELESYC
Kind of assay: Functional cAMP formation (HTRF) in HEK-293 clonal cells expressing hGIPR, 0.1% bovine casein, without or with 1.0% human serum albumin. How it is done:
(§1) After a 30-min incubation at 37° C., the resulting increase in intracellular cAMP is quantitatively determined using a CisBio cAMP Dynamic 2 HTRF Assay Kit (62AM4PEJ). Briefly, cAMP levels within the cell are detected by adding the cAMP-d2 conjugate in cell lysis buffer (10 µL) followed by the antibody anti-cAMP-Eu^3+-Cryptate, also in cell lysis buffer (10 µL). The resulting competitive assay is incubated for at least 60 min at room temperature, and then is detected using a PerkinElmer Envision® instrument with excitation at 320 nm and emission at 665 nm and 620 nm. Envision units (emission at 665 nm/620 nm* 10,000) are inversely proportional to the amount of cAMP present and are converted to nM cAMP per well us-ing a cAMP standard curve. […] A relative EC50 value and percent top (Emax) are derived by non-linear regression analysis using the percent maximal response vs. the concentration of peptide added, fitted to a four-parameter logistic equation.

A further assay addresses hGLP-1R (Homo sapiens, UniProt P43220). Put plainly: Functional cAMP formation (HTRF) in HEK-293 clonal cells expressing hGLP-1R, 0.1% bovine casein, without or with 1.0% human serum albumin. The arrangement: expressed in transfected cells. To be noted: percent of maximal response to GLP-1(7-36)NH2. How it is done:
as §1

For another assay, the target named is T2, hGCGR (Homo sapiens, UniProt P47871).
T2 construct: expressed in transfected cells
Put plainly: Functional cAMP formation (HTRF) in HEK-293 clonal cells expressing hGCGR, 0.1% bovine casein, without or with 1.0% human serum albumin. The settings on record: cAMP, incubated at 37° C., 0.1% bovine casein (no human serum albumin); geometric mean; read-out: hGCGR EC50, nM (SEM, n). How it is done:
as §1

[1] abbreviates: HEK293, 0.1% bovine casein and 1.0% human serum albumin, 37° C., percent of maximal response to GIP(1-42)NH2, read-out: hGIPR Emax, % ± SEM.

Where two headings read alike, the source gives them in different places.

By Emax is commonly meant the size of the effect at its maximum, as opposed to the concentration needed. The EC50 is the concentration that produces a half-maximal response.

Sequence of hGLP-1R (P43220 24-463): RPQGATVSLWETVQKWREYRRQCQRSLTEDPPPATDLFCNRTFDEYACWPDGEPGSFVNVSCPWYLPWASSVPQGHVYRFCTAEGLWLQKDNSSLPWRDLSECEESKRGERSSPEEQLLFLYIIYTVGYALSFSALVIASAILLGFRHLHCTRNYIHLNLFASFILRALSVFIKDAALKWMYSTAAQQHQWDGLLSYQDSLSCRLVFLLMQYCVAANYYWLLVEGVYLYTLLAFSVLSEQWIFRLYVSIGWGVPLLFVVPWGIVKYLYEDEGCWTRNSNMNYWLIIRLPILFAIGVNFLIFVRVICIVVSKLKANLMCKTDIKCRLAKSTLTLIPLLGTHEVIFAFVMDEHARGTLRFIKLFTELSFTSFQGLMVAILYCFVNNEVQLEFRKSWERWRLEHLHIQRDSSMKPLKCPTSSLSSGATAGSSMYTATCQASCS
T2 sequence (P47871 26-477): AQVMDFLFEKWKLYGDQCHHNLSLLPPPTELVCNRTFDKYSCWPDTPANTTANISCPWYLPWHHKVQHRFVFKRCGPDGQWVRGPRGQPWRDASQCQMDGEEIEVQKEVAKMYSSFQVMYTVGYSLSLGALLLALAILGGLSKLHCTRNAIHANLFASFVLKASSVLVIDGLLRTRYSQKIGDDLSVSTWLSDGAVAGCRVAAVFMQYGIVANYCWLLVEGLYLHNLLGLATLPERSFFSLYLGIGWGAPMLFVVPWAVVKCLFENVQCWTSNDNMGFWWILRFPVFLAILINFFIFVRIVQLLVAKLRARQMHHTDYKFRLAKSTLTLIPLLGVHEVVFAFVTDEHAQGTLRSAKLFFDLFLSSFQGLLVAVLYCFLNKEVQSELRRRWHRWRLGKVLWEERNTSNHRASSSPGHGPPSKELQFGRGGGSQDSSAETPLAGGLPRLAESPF

Turning to `CC[C@H](C)[C@H](NC(=O)[C@H](CC(C)C)NC(=O)[C@](C)(Cc1ccc(O)cc1)NC(=O)[C@@H](CCC(=O)O)NC(=O)[C@@H](NC(=O)[C@H](Cc1ccccc1)NC(=O)[C@H](CCC(=O)O)NC(=O)C(C)(C)NC(=O)[C@H](CCC(N)=O)NC(=O)[C@H](C)NC(=O)[C@H](CCCCNC(=O)COCCOCCNC(=O)COCCOCCNC(=O)CCCCCCCCCCCCC(=O)O)NC(=O)[C@H](CCCN)NC(=O)[C@H](CC(=O)O)NC(=O)[C@H](CC(C)C)NC(=O)[C@](C)(CC(C)C)NC(=O)[C@@H](NC(=O)[C@H](CO)NC(=O)[C@H](Cc1ccc2ccccc2c1)NC(=O)[C@H](CC(=O)O)NC(=O)[C@H](CO)NC(=O)[C@@H](NC(=O)[C@](C)(Cc1ccccc1F)NC(=O)[C@@H](NC(=O)CNC(=O)[C@H](CCC(=O)O)NC(=O)C(C)(C)NC(=O)[C@@H](N)Cc1ccc(O)cc1)[C@@H](C)O)[C@@H](C)O)[C@@H](C)CC)[C@@H](C)CC)C(=O)N[C@@H](CCC(=O)O)C(=O)NCC(=O)NCC(=O)N1CCC[C@H]1C(=O)N[C@@H](CO)C(=O)N[C@@H](CO)C(=O)NCC(=O)N[C@@H](C)C(=O)N1CCC[C@H]1C(=O)N1CCC[C@H]1C(=O)N1CCC[C@H]1C(=O)N[C@@H](CO)C(=O)N[C@@H](CCCCNC(=O)COCCOCCNC(=O)COCCOCCNC(=O)CCCCCCCCCCCCC(=O)O)C(N)=O` [Example 257], the Emax on hGIPR (setting [1]) is 72.2%; at hGIPR (HEK293, cAMP, 37° C., 0.1% bovine casein, percent of maximal response to GIP(1-42)NH2, arithmetic mean, read-out: hGIPR Emax, % ± SEM) it was 90.3%; on hGLP-1R (HEK293, cAMP, 37° C., 0.1% bovine casein, arithmetic mean, read-out: hGLP-1R Emax, % ± SEM) it was 82%.
Consider `CC[C@H](C)[C@H](NC(=O)[C@H](CC(C)C)NC(=O)[C@](C)(Cc1ccc(O)cc1)NC(=O)[C@@H](CCC(=O)O)NC(=O)[C@@H](NC(=O)[C@H](Cc1ccccc1)NC(=O)[C@H](CCC(=O)O)NC(=O)C(C)(C)NC(=O)[C@H](CCC(N)=O)NC(=O)[C@H](C)NC(=O)[C@H](CCCCNC(=O)COCCOCCNC(=O)COCCOCCNC(=O)CC[C@H](NC(=O)CCCCCCCCCCCCC(=O)O)C(=O)O)NC(=O)[C@H](CCCN)NC(=O)[C@H](CC(=O)O)NC(=O)[C@H](CC(C)C)NC(=O)[C@](C)(CC(C)C)NC(=O)[C@@H](NC(=O)[C@H](CO)NC(=O)[C@H](Cc1ccc(C(=O)O)cc1)NC(=O)[C@H](CC(=O)O)NC(=O)[C@H](CO)NC(=O)[C@@H](NC(=O)[C@](C)(Cc1ccccc1F)NC(=O)[C@@H](NC(=O)CNC(=O)[C@H](CCC(=O)O)NC(=O)C(C)(C)NC(=O)[C@@H](N)Cc1ccc(O)cc1)[C@@H](C)O)[C@@H](C)O)[C@@H](C)CC)[C@@H](C)CC)C(=O)N[C@@H](CCC(=O)O)C(=O)NCC(=O)NCC(=O)N[C@@H](CCCCNC(=O)COCCOCCNC(=O)COCCOCCNC(=O)CC[C@H](NC(=O)CCCCCCCCCCCCC(=O)O)C(=O)O)C(=O)N[C@@H](CO)C(=O)N[C@@H](CO)C(=O)NCC(=O)N[C@@H](C)C(=O)N1CCC[C@H]1C(=O)N1CCC[C@H]1C(=O)N1CCC[C@H]1C(=O)N[C@@H](CO)C(N)=O` [Example 96], for which the EC50 at hGCGR is over 9950 nM.
On to `CC[C@H](C)[C@H](NC(=O)[C@H](CC(C)C)NC(=O)[C@](C)(Cc1ccc(O)cc1)NC(=O)[C@@H](CCC(=O)O)NC(=O)[C@@H](NC(=O)[C@H](Cc1ccccc1)NC(=O)[C@H](CCC(=O)O)NC(=O)C(C)(C)NC(=O)[C@H](CCC(N)=O)NC(=O)[C@H](C)NC(=O)[C@H](CCCCNC(=O)[C@@H](N)CCCCNC(=O)CC[C@H](NC(=O)CC[C@H](NC(=O)CCCCCCCCCCCCC(=O)O)C(=O)O)C(=O)O)NC(=O)[C@H](CCCN)NC(=O)[C@H](CC(=O)O)NC(=O)[C@H](CC(C)C)NC(=O)[C@](C)(CC(C)C)NC(=O)[C@@H](NC(=O)[C@H](CO)NC(=O)[C@H](Cc1ccncc1)NC(=O)[C@H](CC(=O)O)NC(=O)[C@H](CO)NC(=O)[C@@H](NC(=O)[C@](C)(Cc1ccccc1F)NC(=O)[C@@H](NC(=O)CNC(=O)[C@H](CCC(=O)O)NC(=O)C(C)(C)NC(=O)[C@@H](N)Cc1ccc(O)cc1)[C@@H](C)O)[C@@H](C)O)[C@@H](C)CC)[C@@H](C)CC)C(=O)N[C@@H](CCC(=O)O)C(=O)NCC(=O)NCC(=O)N[C@@H](CCCCNC(=O)[C@@H](N)CCCCNC(=O)CC[C@H](NC(=O)CC[C@H](NC(=O)CCCCCCCCCCCCC(=O)O)C(=O)O)C(=O)O)C(=O)N[C@@H](CO)C(=O)N[C@@H](CO)C(=O)NCC(=O)N[C@@H](C)C(=O)N1CCC[C@H]1C(=O)N1CCC[C@H]1C(=O)N1CCC[C@H]1C(=O)N[C@@H](CO)C(N)=O` [Example 39], for which the Emax at hGIPR (setting [1]) amounted to 86.8 ± 3.27%; at hGIPR (HEK293, percent of maximal response to GIP(1-42)NH2, 37° C., 0.1% bovine casein, arithmetic mean, read-out: hGIPR Emax, % ± SEM), 96.5 ± 1.44%.
With `CC[C@H](C)[C@H](NC(=O)[C@H](CC(C)C)NC(=O)[C@](C)(Cc1ccc(O)cc1)NC(=O)[C@@H](CCC(=O)O)NC(=O)[C@@H](NC(=O)[C@H](Cc1ccccc1)NC(=O)[C@H](CCCN)NC(=O)C(C)(C)NC(=O)[C@H](CCC(N)=O)NC(=O)[C@H](C)NC(=O)[C@H](CCCCNC(=O)COCCOCCNC(=O)COCCOCCNC(=O)CC[C@H](NC(=O)CCCCCCCCCOc1ccc(C(=O)O)cc1)C(=O)O)NC(=O)[C@H](CCCN)NC(=O)[C@H](CC(=O)O)NC(=O)[C@H](CC(C)C)NC(=O)[C@](C)(CC(C)C)NC(=O)[C@@H](NC(=O)C(C)(C)NC(=O)[C@H](Cc1ccncc1)NC(=O)[C@H](CC(=O)O)NC(=O)[C@H](CO)NC(=O)[C@@H](NC(=O)[C@](C)(Cc1ccccc1F)NC(=O)[C@@H](NC(=O)CNC(=O)[C@H](CCC(=O)O)NC(=O)C(C)(C)NC(=O)[C@@H](N)Cc1ccc(O)cc1)[C@@H](C)O)[C@@H](C)O)[C@@H](C)CC)[C@@H](C)CC)C(=O)N[C@@H](CCCCNC(=O)COCCOCCNC(=O)COCCOCCNC(=O)CC[C@H](NC(=O)CCCCCCCCCOc1ccc(C(=O)O)cc1)C(=O)O)C(=O)NCC(=O)NCC(=O)N1CCC[C@H]1C(=O)N[C@@H](CO)C(=O)N[C@@H](CO)C(=O)NCC(=O)N[C@@H](C)C(=O)N1CCC[C@H]1C(=O)N1CCC[C@H]1C(=O)N1CCC[C@H]1C(=O)N[C@@H](CO)C(N)=O` [Example 351], the Emax amounted to 67.9% at hGIPR (HEK293, read-out: hGIPR Emax, % ± SEM, cAMP, 37° C., 0.1% bovine casein and 1.0% human serum albumin, percent of maximal response to GIP(1-42)NH2); 91% on hGLP-1R (HEK293, read-out: hGLP-1R Emax, % ± SEM, cAMP, 37° C., 0.1% bovine casein and 1.0% human serum albumin); 100% at hGLP-1R (HEK293, read-out: hGLP-1R Emax, % ± SEM, cAMP, 37° C., 0.1% bovine casein, arithmetic mean).
`CC[C@H](C)[C@H](NC(=O)[C@H](CC(C)C)NC(=O)[C@](C)(Cc1ccc(O)cc1)NC(=O)[C@@H](CCC(=O)O)NC(=O)[C@@H](NC(=O)[C@H](Cc1ccccc1)NC(=O)[C@H](CCC(=O)O)NC(=O)C(C)(C)NC(=O)[C@H](CCC(N)=O)NC(=O)[C@H](C)NC(=O)[C@H](CCCCNC(=O)COCCOCCNC(=O)COCCOCCNC(=O)CC[C@H](NC(=O)CCCCCCCCCCCCC(=O)O)C(=O)O)NC(=O)[C@H](CCCN)NC(=O)[C@H](CC(=O)O)NC(=O)[C@H](CC(C)C)NC(=O)[C@](C)(CC(C)C)NC(=O)[C@@H](NC(=O)[C@H](CO)NC(=O)[C@H](Cc1csc2ccccc12)NC(=O)[C@H](CC(=O)O)NC(=O)[C@H](CO)NC(=O)[C@@H](NC(=O)[C@](C)(Cc1ccccc1F)NC(=O)[C@@H](NC(=O)CNC(=O)[C@H](CCC(=O)O)NC(=O)C(C)(C)NC(=O)[C@@H](N)Cc1ccc(O)cc1)[C@@H](C)O)[C@@H](C)O)[C@@H](C)CC)[C@@H](C)CC)C(=O)N[C@@H](CCC(=O)O)C(=O)NCC(=O)NCC(=O)N[C@@H](CCCCNC(=O)COCCOCCNC(=O)COCCOCCNC(=O)CC[C@H](NC(=O)CCCCCCCCCCCCC(=O)O)C(=O)O)C(=O)N[C@@H](CO)C(=O)N[C@@H](CO)C(=O)NCC(=O)N[C@@H](C)C(=O)N1CCC[C@H]1C(=O)N1CCC[C@H]1C(=O)N1CCC[C@H]1C(=O)N[C@@H](CO)C(N)=O` [Example 142]: the EC50 on hGCGR was over 9950 nM.
